Series [1] is described as follows: Solubility in water and PBS pH 7.4 (Tables 1 and 2). The class given is physicochemical.
In the next series the target is ARF6 (Homo sapiens, UniProt P62330). As to the kind of experiment: ARF6 inhibition, biochemical fluorometric nucleotide exchange assay. From the text:
These ARF6 inhibitors were discovered using a high-throughput biochemical, fluorometric nucleotide exchange assay to screen 100,000 compounds from a commercially available compound library. Medicinal chemistry optimization efforts have also been conducted. In some embodiments, the clinical potential of the discovered small molecule ARF6 inhibitors can be limited by poor solubility. Accordingly, the synthesis and development of water soluble prodrugs of ARF6 inhibitors can be advantageous. […]

The subject of series [2] is LPS-induced acute lung injury (ALI). As to the kind of experiment: Mouse model of LPS-induced ALI, BALF cell count and BALF protein. Type of series: in vivo. Conditions: for percent reduction in LPS-induced increase in BALF cell count / percent reduction in LPS-induced increase in BALF protein: mean ± SEM. The procedure:
LPS was instilled into the trachea of anesthetized mice. […] The efficacy endpoints were total cell counts and total protein in BALF. All studies were conducted using vehicle negative controls and dexamethasone (5 mg/kg IP at T=0 and 6) as a positive control. Data were analyzed by 1-way ANOVA followed by Tukey's multiple comparison test (GRAPHPAD PRISM® software, version 6.05). […] Reductions in BALF total protein were also observed. […]

Series [3] can be described thus: PK of NAV-A after IP dosing of NAV-B to mice. Type of series: in vivo, mouse. The note with it: six-hour period after IP NAV-B 43 mg/kg. On the procedure: (§1) The PK profile of NAV-A was determined following intravenous (IV) and intraperitoneal (IP) administration of prodrug NAV-B to rats and mice, respectively. […] In this experiment, only the appearance and PK profile of NAV-A was followed, using an established LC/MS method. […] Of note was the very rapid appearance of NAV-A in plasma of the rats receiving NAV-B IV; the highest plasma concentration observed was at five minutes post-dose, the first time point measured. […] Near peak plasma levels of NAV-A were observed within 30 minutes.

A short description of series [4]: PK of NAV-A after IV dosing of NAV-B to rats. The class given is in vivo, rat. On the procedure: as §1
Series [5] deals with Acinetobacter baumannii (AB) HUMC1. Type of series: in vivo, mouse. On the procedure:
Briefly, CD-1 male mice were made neutropenic with 200 mg/kg cyclophosphamide and 250 mg/kg cortisone acetate (in 0.05% Tween 80) on Days −2 and +3. On Day 0, neutropenic mice were infected with Acinetobacter baumannii (AB) HUMC1 (virulent strain; see Luo G, et al. J Antimicrob Chemother. 2012; 67:1439-45 and Luo G, et al. PloS one. 2012; 7:e29446) via inhalation. Treatment with “NAV-” compound was initiated at three hours post infection.
Mice can be made neutropenic by injecting them with cyclophosphamide (200 mg/kg IP) and cortisone acetate (250 mg/kg, subcutaneously) on day −2 and +3 relative to infection. To induce AB pneumonia, neutropenic mice can be infected by aerosolizing AB into an inhalational chamber for one hour through a nebulizer as previously described (see Luo G, et al. J Antimicrob Chemother. 2012; 67:1439-45). Dosing and frequency of treatment can be dictated by the PK and ALI studies conducted in Example 6. Placebo mice can receive vehicle. […] Treatment can begin three hours after infection and continue through Day +7, and survival of mice (the primary endpoint) can be followed for 28 days post-infection. Each group may comprise 10 mice and each experiment may be repeated once (for a total of 20 mice per treatment group) to detect a three-day difference in survival by the Log Rank test (α=0.05).

The test system of a further series is Plasmodium berghei ANKA. The experiment in a line: Mouse model of cerebral malaria. Conditions: NAV-B 42.75 mg/kg IP daily for 11 days from day 3; 14 days post-infection; dihydrochloride.
Series [6] is described as follows: Solubility of ARF6 prodrugs in various vehicles (Table 4). The class given is physicochemical.
For series [7], the system named is multidrug-resistant Pseudomonas aeruginosa (PA). The experiment in a line: Multidrug-resistant Pseudomonas aeruginosa mouse model of pneumonia. Type of series: in vivo. The note with it: NAV-AAR′ 38 and 64 mg/kg subcutaneous once daily for 6 days. On the procedure:
NAV-AAR′ is also active in a multidrug-resistant Pseudomonas aeruginosa (PA) mouse model of pneumonia. […] NAV-AAR′ was administered by subcutaneous injection once daily for 6 days. The antibiotic meropenem was ineffective against MDR PA in this model.

The test system of another series is alkaline phosphatase. As to the kind of experiment: Alkaline phosphatase substrate. The class given is in vitro ADME. Conditions: metabolized to active metabolite NAV-AAC′.
Another series is described as follows: Stability in solution. The note with it: room temperature, protected from light. The class given is physicochemical.
Where [8] appears, read: Table 1, water, read-out: Solubility Water.
The mark [9] stands for this setting: aqueous buffer, Table 1, PBS pH 7.4, read-out: Solubility PBS pH 7.4.
[10] abbreviates: NAV-AAR′ 38 mg/kg or 64 mg/kg intravenous.

From US11414442B2, “ARF6 inhibitors and related methods” (Navigen, Inc., priority 2017, dated 2022) come the findings set out here.

“And” between values parts separate entries of the source, which are not always exact repeats. Equal values may be shown once. “Also recorded” adds a separate entry of the source. Where a name gives a salt, the structure may show the parent alone. Read-outs that look alike come from different tables or passages of the source.

The solubility is the dissolved amount per volume that the medium holds. The IC50 is the concentration that gives 50% inhibition.

Chain of ARF6 (P62330 whole entry, species assumed): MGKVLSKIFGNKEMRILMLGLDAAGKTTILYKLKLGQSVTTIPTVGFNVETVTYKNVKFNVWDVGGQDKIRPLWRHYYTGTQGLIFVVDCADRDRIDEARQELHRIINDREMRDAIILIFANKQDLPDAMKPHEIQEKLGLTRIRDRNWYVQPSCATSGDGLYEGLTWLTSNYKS
From the text for Plasmodium berghei ANKA: Mice were infected with Plasmodium berghei ANKA on day 0. Treatment was initiated on day 3. […] Surviving mice were sacrificed on day 14.

For `O=c1cc(-c2ccc([N+](=O)[O-])cc2O)n2nc(Cc3ccccc3)c(-c3ccc(Cl)cc3)c2[nH]1` [NAV-A, 2-Benzyl-3-(4-chlorophenyl)-7-(2-hydroxy-4-nitro-phenyl)-4H-pyrazolo[1,5-a]pyrimidin-5-one], the solubility in series [1] (setting [8]) was found to be 35 µM; in series [1] (setting [9]), 8 µM. For the same compound, the IC50 on ARF6 (Table 1, read-out: ARF6 IC50) turned out to be 2700 nM. Moreover, the “percent reduction in LPS-induced increase in BALF cell count” value stood at 57 ± 9% in series [2] (30 mg/kg IP, T = 0); 55 ± 3% in [2] (30 mg/kg IP, T = 3); 95 ± 4% in series [2] (60 mg/kg IP, T = 0); 91 ± 1% in series [2] (60 mg/kg IP, T = 3). Besides, the “percent reduction in LPS-induced increase in BALF protein” value turned out to be 36 ± 13% in series [2] (30 mg/kg IP, T = 0); 23 ± 12% in [2] (30 mg/kg IP, T = 3); 46 ± 24% in series [2] (60 mg/kg IP, T = 0); 55 ± 6% in [2] (60 mg/kg IP, T = 3). Also, in series [2] (NAV-A IP), the “BALF total protein” value is listed as “Reductions”. Besides, the “total number of cells in BALF” value in series [2] (NAV-A IP 60 mg/kg (T=0), 30 mg/kg (T=3), 60 mg/kg (T=3)) was “significant decreases”. In addition, the “plasma levels of NAV-A” value in [3] is “high and sustained plasma levels”. In addition, the “time of highest plasma concentration observed” value in series [4] (NAV-A after IV NAV-B, rats, first time point measured) is on record as “five”. Besides, in series [4] (after administration of NAV-B), the “exposure of NAV-A” value is recorded as “excellent exposure”. Also, the “appearance and weight gain of treated mice” value in series [5] (NAV-A 30 mg/kg IP once daily) is reported as “appeared healthy with normal weight gain”. Moreover, in series [5] (NAV-A 30 mg/kg IP once daily for seven days, from 3 h post infection, DMA/PEG300 vehicle), the survival worked out at 50%.

Regarding `NCCCC[C@H](N)C(=O)Oc1cc([N+](=O)[O-])ccc1-c1cc(=O)[nH]c2c(-c3ccc(Cl)cc3)c(Cc3ccccc3)nn12` [NAV-B, [2-[2-benzyl-3-(4-chlorophenyl)-5-oxo-4H-pyrazolo[1,5-a]pyrimidin-7-yl]-5-nitro-phenyl] (2S)-2,6-diaminohexanoate dihydrochloride], the solubility in series [1] (setting [8]) was 425 µM; in series [1] (setting [9]) it was 1.7 µM; in the series “Aqueous solubility” (acidic aqueous media, aqueous buffer) it was over 50 mg/mL; in series [6] (20 mM Na citrate buffer, pH 3.1, aqueous buffer, kinetic from dmso stock, diluted from 10 mM solution in DMSO, read-out: Solubility (μM) 20 mM Na Citrate, pH 3.1) it was 280 µM; in [6] (0.1% Tween 80 in D5W, aqueous with cosolvent or surfactant or cyclodextrin, kinetic from dmso stock, diluted from 10 mM solution in DMSO, read-out: Solubility (μM) 0.1% Tween 80 in D5W), 42 µM; in series [6] (DPBS, pH 7.4, aqueous buffer, kinetic from dmso stock, diluted from 10 mM solution in DMSO, read-out: Solubility (μM) DPBS, pH 7.4) it was 1 µM. The solubility in [6] (saline or isotonic, thermodynamic from solid, D5W, prepared from powder, read-out: Solubility (μM) D5W Prepared from powder) is 14000 µM; in series [6] (water, kinetic from dmso stock, diluted from 10 mM solution in DMSO, read-out: Solubility (μM) H2O) it was 400 µM. Moreover, the IC50 was determined as 2600 nM at ARF6 (Table 1, read-out: ARF6 IC50) and 2600 nM at ARF6 (Table 4, read-out: ARF6 inhibition IC50). Besides, in series [2] (NAV-B 42.75 mg/kg IP), the “concentration of cells in BALF” value is “significant effect”. The “concentration of protein in BALF” value in series [2] (NAV-B 42.75 mg/kg IP) was “significant effect”. Moreover, the “reduction in LPS-induced BALF cell count” value in series [2] (NAV-B 42.75 mg/kg IP at T=0 (equivalent to 30 mg/kg NAV-A), FIG. 10A marks a and b, dihydrochloride) is 62% and 100%. Moreover, the “reduction in BALF cell count” value in [2] (NAV-B 43 mg/kg IP at T=0) came to 70%. Also, in the series with Plasmodium berghei ANKA, the “survival of malaria-infected mice” value was “reduced mortality; also recorded: significant improvement in survival”. For the same compound, the survival in series [5] (NAV-B 42.75 mg/kg IP once daily for 7 days (equivalent to NAV-A 30 mg/kg), normal saline vehicle) was found to be 90%.

For `Cc1ccc(-c2c[nH]c3c(-c4ccc(Cl)cc4)c(Cc4ccccc4)nn3c2=O)c(OP(=O)([O-])[O-])c1.[Na+].[Na+]` [NAV-AAR′], the solubility was over 50 mg/mL in [1] (Table 2, water, read-out: Solubility Water) and at most 50 mg/mL in “Aqueous solubility”. Moreover, the IC50 at ARF6 (Table 2, read-out: ARF6 IC50) lay in the range of 1000 to 2000 nM; at ARF6 (approximately, read-out: ARF6 IC50), 1000 to 2000 nM. Also, the “survival in MDR PA pneumonia” value in [7] is “improve survival; also recorded: increase in survival”. Besides, the “number of total (nucleated) cells in BALF” value in series [2] (setting [10]) is reported as “significant reductions; also recorded: decrease”. Also, the “protein concentration in BALF” value in series [2] (setting [10]) is recorded as “significant reductions; also recorded: decrease”. Moreover, the “substrate for alkaline phosphatase” value in the series on alkaline phosphatase was “substrate for alkaline phosphatase”. Also, the stable in solution entry in the series “Stability in solution” is reported as “up to 4 months”.
